# Measured values published in paper PMC12610721, “The Action of Cannabidiol on Doxycycline Cytotoxicity in Human Cells—In Vitro Study” (Molecules, 2025).
# “Also recorded” adds a separate entry of the source. Like-named read-outs stand apart in the source and are kept apart here.
# How the values were obtained:
# HepG2 cells [1] = system: HepG2 cells; design: method as in PMID 22116976; settings: HepG2, 20 µM (10.3 µg/mL); inhibited mitochondrial activity, membrane damage, increased ROS; cited from earlier work
# SH-SY5Y cells [2] = test: oxidative stress, ROS production (DCFH assay); assay type: cell-based, human; settings: DCFH-DA, 72 h
# Experimental: (§1) Intracellular ROS levels were evaluated using the redox-sensitive fluorescent dye DCFH-DA [87]. Briefly, the cells were incubated with 5 μM DCFH-DA for 1 h at 37 °C in the dark. Thereafter, the tested compounds were added at the concentrations used in the study. Cells treated with 500 μM hydrogen peroxide (H2O2) served as a positive control. After 72 h of incubation, the fluorescence of 2′,7′-dichlorofluorescein (DCF) was measured. Fluorescence was recorded at 485/530 nm using a fluorescence microplate reader (BioTek® Instruments Inc., Winooski, VT, USA).
# HepG2 cells [3] = test: oxidative stress, ROS production (DCFH assay); assay type: cell-based, human; settings: HepG2, DCFH-DA, 72 h
# Experimental: as §1
# HEK-293 cells [4] = test: oxidative stress, ROS production (DCFH assay); assay type: cell-based, human
# Experimental: as §1
# HEK-293 cells [5] = test: apoptosis and necrosis (Hoechst 33342 + propidium iodide staining); assay type: cell-based, human; settings: HEK-293, 72 h
# Experimental: (§8) The type and extent of cell death in the control and treated cultures were evaluated using fluorochrome staining with Hoechst 33342 and propidium iodide to assess apoptosis and necrosis [88]. Dead cells were analyzed morphologically using a fluorescence microscope (Axiovert 200 M, Zeiss, Oberkochen, Germany). Cells with pink, fluorescent nuclei were considered necrotic, whereas cells with blue, fluorescent nuclei (fragmented and/or condensed chromatin) were classified as apoptotic.
# SH-SY5Y cells [6] = test: mitochondrial activity (MTT assay); settings: 72 h
# Experimental: (§2) This innovative study evaluated the effects of cannabidiol (Cannabis sativa L.) on doxycycline-induced toxicity using three cell cultures: neural—SH-SY5Y, liver—HepG2, and kidney—HEK-293. […] A series of cytotoxicity assays included assessments of mitochondrial activity, lysosomal activity, cell membrane integrity, DNA synthesis, and cell proliferation. Based on the obtained results, IC50 values for doxycycline, both in monotherapy and in combination with CBD, were calculated, along with evaluations of ROS, death of cells, and morphology. The interaction between the drug and CBD was further analyzed by the combination index (CI).
# (§3) The metabolic activity of viable cells was assessed by measuring dehydrogenase activity. After exposing the cell cultures to the test compounds, 10 µL of MTT solution (5 mg/mL in PBS) was added to each well of a 96-well plate. After 3 h of incubation, the MTT solution was removed, and the intracellular formazan was dissolved in 100 µL of DMSO. The plate was shaken for 15 min at room temperature and transferred to a Synergy 2 Multi-Mode Microplate Reader (BioTek® Instruments Inc., Winooski, VT, USA) to measure absorbance at 570 nm, using a blank as reference. Cytotoxicity was expressed as a percentage relative to the negative control.
# (§4) To determine the types of interaction that occur when cells are exposed to combinations of DOX and CBD, the method established by Chou and Talalay was used in this study. The dose–effect relationships of the individual and combined test compounds were modeled biometrically using the Median-Effect Equation based on the Mass Action Law.fa/fu = (D/Dm)^m
# (§5) In this isobolographic analysis, the combination index (CI) is a quantitative parameter used to evaluate the type and strength of interactions between multiple compounds. For all combinations, CI values were calculated across a range of affected fractions (Fa) from 0.05 to 0.95 (corresponding to 5–95% toxicity). CI values of 0.9–1.1, <0.9, and >1.1 indicate additive, synergistic, and antagonistic effects, respectively.
# (§6) The study was conducted in three independent experiments (n = 3). […] Cytotoxicity data were analyzed using one-way analysis of variance (ANOVA), followed by Dunnett’s post hoc test to assess significance relative to the negative control. The half-maximal inhibitory concentration (IC50), representing the drug or drug–CBD mixture concentration required to inhibit cell viability by 50%, was calculated using GraphPad Prism 5.0. Statistical comparisons between IC50 values were performed using ANOVA followed by Tukey’s post hoc test. Differences were considered statistically significant at p ≤ 0.05.
# HepG2 cells [7] = test: mitochondrial activity (MTT assay)
# Experimental: as §2, §3, §4, §5, §6
# HEK-293 cells [8] = test: mitochondrial activity (MTT assay)
# Experimental: as §2, §3, §4, §5, §6
# [9] = system: rat neuronal cell line PC12; design: method as in PMID 33798505; settings: PC12, 24 h, 20 µM (10.26 µg/mL); cited from earlier work
# various human cell lines = settings: cited from earlier work
# SH-SY5Y cells [10] = test: cell membrane integrity (LDH leakage assay); settings: 72 h
# Experimental: as §2
# (§7) Cell membrane integrity was assessed by measuring lactate dehydrogenase (LDH) release, using a commercially available Cytotoxicity Detection Kit (LDH) (Roche Diagnostics, Warsaw, Poland). After incubation, 100 µL of culture medium (cell-free) from each well was transferred to the corresponding wells of an optically clear 96-well flat-bottom microplate, and 100 µL of reaction mixture was added to each well. The plate was then incubated for 30 min at room temperature in the dark. To stop the reaction, 50 µL of 1 M HCl was added to each well. Absorbance was measured at 492 nm using the Synergy 2 Multi-Mode Microplate Reader (BioTek® Instruments Inc., Winooski, VT, USA), with a blank as reference.
# as §4, §5, §6
# HepG2 cells [11] = test: cell membrane integrity (LDH leakage assay)
# Experimental: as §2, §7, §4, §5, §6
# HEK-293 cells [12] = test: cell membrane integrity (LDH leakage assay)
# Experimental: as §2, §7, §4, §5, §6
# SH-SY5Y cells [13] = system: SH-SY5Y cells; design: method as in earlier work; settings: 48 h exposure, cited from earlier work
# normal HK-2 cells = system: normal HK-2 cells; design: method as in PMID 34644207; settings: HK-2, 20 µg/mL, without triggering apoptosis; cited from earlier work
# [14] = cited from earlier work
# SH-SY5Y cells [15] = settings: 72 h, Hoechst 33342/propidium iodide
# Experimental: as §8
smiles,measurement,setting,value
"C[C@H]1c2cccc(O)c2C(=O)C2=C(O)[C@]3(O)C(=O)C(C(N)=O)=C(O)[C@@H](N(C)C)[C@@H]3[C@@H](O)[C@@H]21 [DOX, doxycycline hyclate]",effect on cell viability,HepG2 cells [1],reduced cell viability
same,doxycycline concentration from which free radical (ROS) production increased,SH-SY5Y cells [2],1.56 µg/mL
same,doxycycline concentration at which free radical (ROS) production increased significantly,HepG2 cells [3],12.5 µg/mL
same,doxycycline concentration from which free radical (ROS) production increased,HEK-293 cells [4],lowest tested concentration
same,apoptotic and necrotic cell fractions,HEK-293 cells [5],increased apoptotic and necrotic cell fractions; also recorded: significant increase in apoptotic and necrotic cells
same,IC50,SH-SY5Y cells [6]; Homo sapiens,9.8 ± 0.9 µg/mL
same,doxycycline concentration from which mitochondrial activity was inhibited,"SH-SY5Y cells [6]; MTT, p ≤ 0.05 vs negative control",6.25 µg/mL
same,doxycycline concentration that impaired mitochondrial function,"HepG2 cells [7]; HepG2, MTT, 72 h",50 µg/mL
same,IC50,"HepG2 cells [7]; Homo sapiens, HepG2, 72 h",> 200 µg/mL
same,doxycycline concentration that inhibited mitochondrial activity,"HEK-293 cells [8]; HEK-293, MTT, 72 h",6.25 µg/mL
same,IC50,"HEK-293 cells [8]; Homo sapiens, HEK293, 72 h",17.4 ± 1 µg/mL
same,neurotoxicity,[9],no signs of neurotoxicity
same,effect of extended incubation on human cell lines,"various human cell lines; 96 h, 0.1 to 10 µg/mL, increased lactate production and decreased oxygen consumption",cytotoxic effects
same,concentration observed to inhibit proliferation and induce apoptotic cell death,various human cell lines; tested human cell cultures,1000 ng/mL
same,IC50,SH-SY5Y cells [10]; Homo sapiens,149 ± 6.5 µg/mL
same,doxycycline concentration that induced cell membrane breakdown,SH-SY5Y cells [10]; LDH,12.5 µg/mL
same,doxycycline concentration that disrupted membrane integrity,"HepG2 cells [11]; HepG2, LDH, 72 h",50 µg/mL
same,IC50,"HepG2 cells [11]; Homo sapiens, HepG2, 72 h",> 200 µg/mL
same,doxycycline concentration that caused degradation of the cell membrane,"HEK-293 cells [12]; HEK-293, LDH, 72 h",6.25 µg/mL
same,IC50,"HEK-293 cells [12]; Homo sapiens, HEK293, 72 h",30.4 ± 2.7 µg/mL
same,IC50,SH-SY5Y cells [13]; converted value in brackets,1.9 µg/mL
same,IC50,SH-SY5Y cells [13]; read-out: IC50,3.7 ± 0.1 µM
same,effect on DNA synthesis,normal HK-2 cells,inhibited DNA synthesis
same,DOX level in breast muscles,[14]; breast muscles,32.4 ± 3.6 µg/kg
same,residues of DOX detected in eggs,[14]; eggs,up to 1400 μg/kg
same,DOX concentration accumulated in the kidneys,[14]; kidneys,44.7 ± 4.3 µg/kg
same,DOX concentration measured in the liver,[14]; liver,21.6 ± 3.2 µg/kg
same,residues of DOX detected in milk,[14]; milk,5 to 490 µg/kg
same,DOX level in thigh muscles,[14]; thigh muscles,22.7 ± 2.9 µg/kg
same,proportion of apoptotic and necrotic cells,SH-SY5Y cells [15],increased the proportion of apoptotic and necrotic cells
same,proportion of apoptotic and necrotic cells,SH-SY5Y cells [15]; listed as doxycycline,marked increase in apoptotic and necrotic cell populations
